This note sets out measurements from patent US20200138927A1, “NON-CROSS-LINKED […] […] […] FOR USE IN C[…]” (GlaxoSmithKline Biologicals SA, priority 2012, published 2020).

Converted amounts (≈) assume the structure as drawn.

A short description of data set [1]: Adsorption to aluminium hydroxide. Format: physicochemical.
A short description of another data set: Solubility in water. Format: physicochemical.

Turning to `Cc1ccc2c(c1)nc(N)c1ncc(CCc3ccc(OCCOCCOCCC(F)(F)P(=O)(O)O)cc3C)cc12` [Compound K1], in data set [1], the “adsorption to aluminium hydroxide” value is reported as “adsorbs well”. In “Solubility in water”, the solubility was ~4000 µg/mL (≈ 6.78 mM).
